Reference: ChEMBL document CHEMBL6096735, “Exploring the Ascorbate Requirement of the 2-Oxoglutarate-Dependent Dioxygenases” (J Med Chem, 2025)

Target: Methylcytosine dioxygenase TET2 (Homo sapiens) (UniProt Q6N021)
Assay: Binding affinity to TET2 (unknown origin) assessed as binding constant

In the case of O=C1O[C@H]([C@@H](O)CO)C(O)=C1O, the Kb is reported as 8.7 10^3/M.

O=C1O[C@H]([C@H](O)CO)C(O)=C1O was tested, and the Kb was 8.7 10^3/M.
